Measurements from patent US20130288897A1, “SYNERGISTIC PESTICIDAL COMPOSITIONS” (Dow AgroSciences LLC, priority 2012, published 2013).
“And” between values parts separate entries of the source, which are not always exact repeats. Identical values can stand only once.

Legend:
[1] = system: cotton aphid (CA) Aphis gossypii; experiment: Cotton aphid track-sprayer test on cotton: Compound A or imidacloprid with Durango (glyphosate) or Durango Blank and AMS (Example XVI); format: in vivo; conditions: for Colbv predicted values Ave / % Control (Negatives to zero) Ave / % control Ave: average of 5 reps
Experimental: Glyphosate resistant cotton plants (Gossypium hirsutum, cv ‘DP493’) were trimmed to 1 true leaf and infested with mixed stages of cotton aphid (CA) Aphis gossypii 24 h prior to application. Mixed developmental stage CA were infested onto the upper surface of each treated leaf by transferring infested foliage from an insectary colony. Each plant was infested with approximately equal numbers of CA based on visual estimation of aphid density on the infested material. Infested plants were held in the growth chamber (L:D 16:8 and 25° C.). Glyphosate (Durango®, Dow AgroSciences, LLC, Indianapolis, Ind.) was mixed with water at a rate equivalent to 15 ml/L (1.2 qt/Ac). […] A glyphosate free formulation of Durango® was prepared using these same mixing instructions. […] High rate Compound A concentrations were created by diluting Compound A technical material with acetone to achieve a 10 ppm solution. […] […] […] Nozzle height above the canopy was held constant at ca. 30 cm. Plants were evaluated after 3 days from the time of infestation by counting all live cotton aphids on each plant.
[…] Percent control for all treatments was calculated using the rep average for the untreated plants.

[2] = system: cotton aphid (CA) Aphis gossypii; experiment: Cotton aphid track-sprayer test on cotton: Compound A with glufosinate (Liberty) and AMS, rates 0.4, 0.1 and 0.025 g/Ha (Example XVIII); format: in vivo
Experimental: Glyphosate resistant cotton plants (Gossypium hirsutum, cv ‘DP493’) were trimmed to 1 true leaf and infested with mixed stages of cotton aphid (CA) Aphis gossypii 24 hours prior to application. Mixed developmental stage CA were infested onto the upper surface of each treated leaf by transferring infested foliage from an insectary colony. Each plant was infested with approximately equal numbers of CA based on visual estimation of aphid density on the infested material. Infested plants were held in the growth chamber (L:D 16:8 and 25° C.). Glufosinate (Liberty®, Bayer CropScience, Monheim am Rhein, Germany) was mixed with water at a rate equivalent to 5 ml/L (0.4 qt/Ac). […] High rate Compound A concentrations were created by diluting Compound A technical material with acetone to achieve a 20 ppm solution. […] […] […] Nozzle height above the canopy was held constant at ca. 30 cm. Plants were evaluated after 3 days from the time of infestation by counting all live cotton aphids on each plant.

[3] = 0.05 g insecticide/Ha with Durango Blank 0.015 ml/ml
[4] = 0.2 g insecticide/Ha with Durango 0.015 ml/ml + AMS 18 g/L, Rep 1-5
[5] = 0.2 g insecticide/Ha with Durango 0.015 ml/ml + AMS 18 g/L
[6] = 0.2 g insecticide/Ha with Durango 0.015 ml/ml, Rep 1-5
[7] = 0.2 g insecticide/Ha with Durango 0.015 ml/ml
[8] = 0.2 g insecticide/Ha with Durango Blank 0.015 ml/ml + AMS 18 g/L, Rep 1-5
[9] = 0.2 g insecticide/Ha with Durango Blank 0.015 ml/ml + AMS 18 g/L
[10] = 0.2 g insecticide/Ha with Durango Blank 0.015 ml/ml
[11] = 0.025 g In./HA + Lib. 0.005 ml/ml
[12] = 0.025 g In./HA + Lib. 0.005 ml/ml + AMS 18 g/L
[13] = 0.1 g In./HA + Lib. 0.005 ml/ml
[14] = 0.1 g In./HA + Lib. 0.005 ml/ml + AMS 18 g/L
[15] = 0.4 g In./HA + Lib. 0.005 ml/ml
[16] = 0.4 g In./HA + Lib. 0.005 ml/ml + AMS 18 g/L
[17] = Rep 1-6, 0.1 g In./HA + Lib. 0.005 ml/ml
[18] = Rep 1-6, 0.1 g In./HA + Lib. 0.005 ml/ml + AMS 18 g/L
[19] = Rep 1-6, 0.4 g In./HA + Lib. 0.005 ml/ml
[20] = Rep 1-6, 0.4 g In./HA + Lib. 0.005 ml/ml + AMS 18 g/L

SMILES: CC(c1ccc(C(F)(F)F)nc1)S(C)(=O)=NC#N (stereo not shown) [Compound A, [1-(6-Trifluoromethylpyridin-3-yl)ethyl](methyl)-oxido-λ^4-sulfanylidenecyanamide]
- Colbv predicted values Ave ([1]; 0.05 g insecticide/Ha with Durango Blank 0.015 ml/ml + AMS 18 g/L): 56.9
- % Control (Negatives to zero) Ave [1, 3]: 36.1%
- % control Ave [1, 3]: 36.1%
- Colbv predicted values Ave [1, 3]: 43.6
- % control Ave ([1]; 0.05 g insecticide/Ha, no herbicide, no AMS): 31.8%
- % control [1, 4]: 97.5% and 100.0%
- % control Negatives to zero [1, 4]: 97.5% and 100.0%
- % Control (Negatives to zero) Ave [1, 5]: 99.5%
- % control Ave [1, 5]: 99.5%
- Colbv predicted values Ave [1, 5]: 72.8
- % control [1, 6]: 89.8% and 96.1% and 76.1% and 91.8% and 96.0%
- % control Negatives to zero [1, 6]: 89.8% and 96.1% and 76.1% and 91.8% and 96.0%
- % Control (Negatives to zero) Ave [1, 7]: 90.0%
- % control Ave [1, 7]: 90.0%
- Colbv predicted values Ave [1, 7]: 70.5
- % control [1, 8]: 66.9% and 97.1% and 76.1% and 79.5% and 74.4%
- % control Negatives to zero [1, 8]: 68.9% and 97.1% and 76.1% and 79.5% and 74.4%
- Colbv predicted values [1, 8]: 97.5 and 77.2 and 97.3 and 72.7 and 71.7
- % Control (Negatives to zero) Ave [1, 9]: 78.8%
- % control Ave [1, 9]: 78.8%
- Colbv predicted values Ave [1, 9]: 83.3
- % Control (Negatives to zero) Ave [1, 10]: 60.1%
- % control Ave [1, 10]: 60.1%
- Colbv predicted values Ave [1, 10]: 71.5
- % control Ave ([1]; 0.2 g insecticide/Ha, no herbicide, no AMS): 50.2%
- % Control (Negatives to zero) Ave [2, 11]: 54.2%
- Colby Predicted Values Ave [2, 11]: 56.8
- % Control (Negatives to zero) Ave [2, 12]: 85.6%
- Colby Predicted Values Ave [2, 12]: 62.5
- % Control (Negatives to zero) Ave [2, 13]: 76.7%
- Colby Predicted Values Ave [2, 13]: 72.4
- % Control (Negatives to zero) Ave [2, 14]: 89.7%
- Colby Predicted Values Ave [2, 14]: 76.7
- % Control (Negatives to zero) Ave ([2]; 0.1 g In./HA, no Lib., no AMS): 62.1%
- % Control (Negatives to zero) Ave [2, 15]: 99.0%
- Colby Predicted Values Ave [2, 15]: 98.2
- % Control (Negatives to zero) Ave [2, 16]: 98.2%
- Colby Predicted Values Ave [2, 16]: 98.4
- % Control (Negatives to zero) Ave ([2]; 0.4 g In./HA, no Lib., no AMS): 97.3%
- % Control (Negatives to zero) Ave ([2]; 0025 g In./HA, no Lib., no AMS): 39.5%
- % control Negatives to zero ([2]; Rep 1-6, 0.025 g In./HA + Lib. 0.005 ml/ml + AMS 18 g/L): 70.0% and 95.4% and 97.0% and 89.1% and 65.9% and 96.2%
- CA Counts ([2]; Rep 1-6, 0.025 g In./Ha, no Liberty, no AMS): 198 and 126 and 194 and 117 and 231 and 212
- % control Negatives to zero [2, 17]: 58.2% and 79.2% and 98.0% and 58.5% and 82.6% and 84.0%
- Colby Predicted Values [2, 17]: 74.4 and 70.0 and 71.8 and 78.3 and 93.2 and 46.6
- % control Negatives to zero [2, 18]: 95.2% and 89.4% and 91.2% and 81.2% and 99.0% and 81.9%
- Colby Predicted Values [2, 18]: 81.3 and 73.3 and 73.7 and 78.5 and 93.8 and 59.6
- % control Negatives to zero ([2]; Rep 1-6, 0.1 g In./HA, no Lib., no AMS): 65.2% and 70.0% and 54.2% and 73.5% and 70.9% and 38.7%
- % control Negatives to zero [2, 19]: 97.8% and 100.0% and 99.0% and 98.4% and 98.7%
- Colby Predicted Values [2, 19]: 99.3 and 97.9 and 96.6 and 99.2 and 97.3
- % control Negatives to zero [2, 20]: 98.2% and 100.0% and 98.3% and 92.7%
- Colby Predicted Values [2, 20]: 99.0 and 99.4 and 98.1 and 96.6 and 99.3 and 97.9
- % control Negatives to zero ([2]; Rep 1-6, 0.4 g In./HA, no Lib., no AMS): 98.2% and 99.3% and 96.6% and 95.8% and 96.7% and 96.9%
